The text below walks through data of patent US20250179077A1, “QUINAZOLINE COMPOUNDS AND USES THEREOF AS INHIBITORS OF MUTANT KRAS PROTEINS” (AMGEN INC., priority 2022, published 2025).

Experiment [1] deals with Phosphorylation of ERK1/2 in AsPC-1 cells. Put plainly: Phospho-ERK1/2 MSD Assay. Type of experiment: cell-based. As to the method:
AsPC-1 (ATCC® CRL-1682™) cells were cultured in RPMI 1640 Medium (ThermoFisher Scientific 11875093) containing 10% fetal bovine serum (ThermoFisher Scientific 16000044) and Ix penicillin-streptomycin-glutamine (ThermoFisher Scientific 10378016). Sixteen hours prior to compound treatment, AsPC-1 cells were seeded in 96-well cell culture plates at a density of 25,000 cells/well and incubated at 37° C., 5% CO2. A compound dose-response titration was diluted in growth media, added to appropriate wells of a cell culture plate, and then incubated at 37° C., 5% CO2 for 2 h. Following compound treatment, cells were washed with ice-cold Dulbecco's phosphate-buffered saline, no Ca^2+ or Mg^2+ (ThermoFisher Scientific 14190144), and then lysed in RIPA buffer (50 mM Tris-HCl pH 7.5, 1% Igepal, 0.5% sodium deoxycholate, 150 mM NaCl, and 0.5% sodium dodecyl sulfate) containing protease inhibitors (Roche 4693132001) and phosphatase inhibitors (Roche 4906837001). Phosphorylation of ERK1/2 in compound-treated lysates was assayed using Phospho-ERK1/2 Whole Cell Lysate kits (Meso Scale Discovery K151DWD) according to the manufacturer's protocol. Assay plates were read on a Meso Scale Discovery Sector Imager 6000, and data were analyzed using a 4-parameter logistic model to calculate IC50 values.

The target of experiment [2] is His-tagged KRAS G12D protein (Homo sapiens, UniProt P01116, G12D). Put plainly: KRAS G12D TR-FRET Assay. Format: binding. The protocol:
KRAS G12D TR-FRET Assay Compounds of interest were prepared in a dose-response titration in DMSO, and 80 nL were added via Labcyte Echo to each well of a 384-well plate (Perkin Elmer 6008280). The His-tagged KRAS G12D protein (Amgen) was diluted to 20 nM in Assay Buffer (20 mM HEPES, pH 7.4, 10 mM MgCl2, 50 mM NaCl, 0.1% BSA, 0.01% Tween-20, 10 μM GDP) and 2 uL was added to the appropriate wells of the 384-well plate. The plate was incubated for 30 minutes at room temperature. Biotinylated KRPep-2d substrate (Amgen) was diluted to 20 nM in Assay Buffer and 2 μL was added to all wells and incubated for 1 hour at room temperature. Detection Reagent (0.4 nM LANCE Eu-W1024 Anti-6×-His (Perkin Elmer AD0401), 5 nM streptavidin-d2 (Cisbio 610SADLA)) was prepared in Assay Buffer, then 4 μL was added to the plate and incubated for 1 hour at room temperature. Plates were read using PerkinElmer EnVision (ex: 320 nm, em1: 665 nm, em2: 615 nm) and em1/em2 data was used to generate curve fits using a 4-parameter logistic model to calculate IC50 values.

Experiment [3] has as its target GDP-bound KRAS protein (aa 1-169), containing both G12D and C118A amino acid substitutions (Homo sapiens, UniProt P01116, C118A/G12D). Put plainly: KRAS G12D Coupled Nucleotide Exchange Assay. Format: biochemical. As to the method:
KRAS G12D Coupled Nucleotide Exchange Assay
Following compound pre-incubation, purified SOS protein (aa 564-1049) and GTP (Roche 10106399001) were added to the assay wells and incubated for an additional 30 min. […] The assay plates were then read on a PerkinElmer EnVision Multilabel Reader, using AlphaScreen® technology, and data were analyzed using a 4-parameter logistic model to calculate IC50 values.

[4] abbreviates: read-out: 2 h p-ERK (AsPC-1 cells), IC50, AsPC-1 cells, 2 h compound treatment.
Where [5] appears, read: Homo sapiens, ASPC1, 2 h, read-out: 2 h p-ERK (AsPC-1 cells), IC50, AsPC-1 cells, 2 h compound treatment.

SMILES strings stand for the structures. pIC50: −log10 of the molar value. Read-outs that look alike come from different tables or passages of the source.

Chain of GDP-bound KRAS protein (aa 1-169), containing both G12D and C118A amino acid substitutions (P01116 1-169 isoform P01116-2 G12D/C118A): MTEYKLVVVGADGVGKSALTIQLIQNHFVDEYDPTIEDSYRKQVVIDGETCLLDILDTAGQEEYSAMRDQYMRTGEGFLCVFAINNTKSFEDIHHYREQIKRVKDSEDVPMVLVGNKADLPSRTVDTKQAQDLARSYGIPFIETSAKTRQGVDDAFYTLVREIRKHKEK
Chain of His-tagged KRAS G12D protein (P01116 1-188 isoform P01116-2 G12D): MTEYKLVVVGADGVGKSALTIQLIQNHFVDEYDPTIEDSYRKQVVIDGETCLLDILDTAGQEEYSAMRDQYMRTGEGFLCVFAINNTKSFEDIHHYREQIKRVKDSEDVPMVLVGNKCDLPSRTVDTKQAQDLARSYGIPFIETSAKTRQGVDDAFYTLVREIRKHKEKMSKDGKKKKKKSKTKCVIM

With `CCc1c(F)ccc2cc(O)cc(-c3c(F)cc4c(N5CCCC6(CNC(=O)O6)C5)nc(OC[C@@]56CCCN5C[C@H](F)C6)nc4c3F)c12` (single isomer, unassigned) [Example 59], the figures for the pIC50 in experiment [1] (setting [4]) and in experiment [2] were 7.41 and 7.68, respectively. For the same compound, the IC50 in experiment [3] amounted to 8 nM.
`CCc1c(F)ccc2cc(N)cc(-c3c(F)cc4c(N5CCC[C@@](C)(O)C5)nc(OC[C@@]56CCCN5C[C@H](F)C6)nc4c3F)c12` (single isomer, unassigned) [Example 62]: the negative-log IC50 (pIC50) in experiment [1] (setting [5]) is 6.55; in experiment [2], 7.77. In addition, the 50% inhibitory concentration (IC50) in experiment [3] was 2 nM.
Taken in the same sequence, the figures for `C#Cc1c(F)ccc2cccc(-c3c(F)cc4c(N5CCC[C@@](C)(O)C5)nc(OC[C@@]56CCCN5C[C@H](F)C6)nc4c3F)c12` (single isomer, unassigned) [Example 67] were 6.47, 8.40 and 3 nM.
On to `CCc1c(F)ccc2cc(N)cc(-c3c(F)cc4c(N5CCOCC(C)(O)C5)nc(OC[C@@]56CCCN5C[C@H](F)C6)nc4c3F)c12` (single isomer, unassigned) [Example 71], for which the values for the pIC50 in experiment [1] (setting [4]) and in experiment [2] were 5.85 and 6.95, respectively. Besides, the IC50 in experiment [3] came out at 14 nM.
As to `CCc1c(F)ccc2cc(N)cc(-c3c(F)cc4c(N5CCOCC(C)(O)C5)nc(OC[C@@]56CCCN5C[C@H](F)C6)nc4c3F)c12` (single isomer, unassigned) [Example 72], the figures for the pIC50 in experiment [1] (setting [4]) and in experiment [2] were 6.82 and 8.10, respectively. In experiment [3], this compound returned an IC50 of 2 nM.
As to `CCc1c(F)ccc2cc(O)cc(-c3ccc4c(N5CCC[C@]6(CCO6)C5)nc(OC[C@@]56CCCN5C[C@H](F)C6)nc4c3F)c12` (single isomer, unassigned) [Example 76], the pIC50 was 8.05 in experiment [1] (setting [5]) and 8.30 in experiment [2]. The compound also had an IC50 in experiment [3] of 3 nM.
For `CCc1c(F)ccc2cc(O)cc(-c3c(F)cc4c(N5CCC[C@]6(CNC(=O)O6)C5)nc(OC[C@@H]5C[C@@H](F)CN5C)nc4c3F)c12` (single isomer, unassigned) [Example 80] the same measures were 8.15, 8.40 and 2 nM.
For `C[C@@]1(O)COCCN(c2nc(OC[C@@]34CCCN3C[C@H](F)C4)nc3c(F)c(-c4cc(O)cc5ccc(F)c(Cl)c45)c(F)cc23)C1` (single isomer, unassigned) [Example 81] the same measures were 8.10, 8.30 and 4 nM.
As to `C[C@@]1(O)COCCN(c2nc(OC[C@@]34CCCN3C[C@H](F)C4)nc3c(F)c(-c4cc(O)cc5ccc(F)c(Cl)c45)ccc23)C1` (single isomer, unassigned) [Example 82], the pIC50 is 7.62 in experiment [1] (setting [5]) and 8.30 in experiment [2]. The compound further showed an IC50 in experiment [3] of 2 nM.
On to `CCc1c(F)ccc2cc(O)cc(-c3ccc4c(N5CCC[C@]6(COC(=O)O6)C5)nc(OC[C@@]56CCCN5C[C@H](F)C6)nc4c3F)c12` (single isomer, unassigned) [Example 86], for which the pIC50 in experiment [1] (setting [5]) was 7.28; in experiment [2], 8.22. In addition, the IC50 in experiment [3] came to 4 nM.
Taken in the same sequence, the figures for `CCc1c(F)ccc2cc(O)cc(-c3ccc4c(N5CCC[C@]6(CNC(=O)O6)C5)nc(OC[C@@]56CCCN5C[C@H](F)C6)nc4c3F)c12` (single isomer, unassigned) [Example 88] were 7.89, 7.82 and 6 nM.
Taken in the same sequence, the figures for `CCc1c(F)ccc2cc(O)cc(-c3ccc4c(N5CCC[C@@]6(CNC(=O)O6)C5)nc(OC[C@@]56CCCN5C[C@H](F)C6)nc4c3F)c12` (single isomer, unassigned) [Example 89] were 7.85, 8.15 and 5 nM.
For `CCc1c(F)ccc2cc(O)cc(-c3c(F)cc4c(N5CCC[C@]6(CCO6)C5)nc(OC[C@@]56CCCN5C[C@H](F)C6)nc4c3F)c12` (single isomer, unassigned) [Example 90] the same measures were 8.15, 8.30 and 3 nM.
As to `CCc1c(F)ccc2cc(O)cc(-c3c(F)cc4c(N5CCC[C@]6(C5)C[C@@H](O)C6)nc(OC[C@@]56CCCN5C[C@H](F)C6)nc4c3F)c12` (single isomer, unassigned) [Example 91], the figures for the pIC50 in experiment [1] (setting [5]) and in experiment [2] were 7.80 and 8.30, respectively. The compound further returned an IC50 in experiment [3] of 3 nM.
Taken in the same sequence, the figures for `CCc1c(F)ccc2cc(O)cc(-c3c(F)cc4c(N5CCC[C@]6(COC(=O)O6)C5)nc(OC[C@@]56CCCN5C[C@H](F)C6)nc4c3F)c12` (single isomer, unassigned) [Example 93] were 7.55, 8.15 and 5 nM.
For `CCc1c(F)ccc2cc(O)cc(-c3c(F)cc4c(N5CCC[C@]6(CCS(=O)(=O)C6)C5)nc(OC[C@@]56CCCN5C[C@H](F)C6)nc4c3F)c12` (single isomer, unassigned) [Example 94] the same measures were 7.59, 8.40 and 4 nM.
For `CCc1c(F)ccc2cc(N)cc(-c3c(F)cc4c(N5CCC[C@]6(CNC(=O)O6)C5)nc(OC[C@@]56CCCN5C[C@H](F)C6)nc4c3F)c12` (single isomer, unassigned) [Example 97] the same measures were 7.54, 8.40 and 2 nM.
For `C[C@@H]1C[C@@H]1c1c(Cl)cc2[nH]ncc2c1-c1c(F)cc2c(N3CCOC[C@@](C)(O)C3)nc(OC[C@@]34CCCN3C[C@H](F)C4)nc2c1F` (single isomer, unassigned) [Example 98], the negative-log IC50 (pIC50) in experiment [1] (setting [5]) is 7.55; in experiment [2], 8.15. Also, the IC50 in experiment [3] was 3 nM.
For `C[C@@H]1CC1c1c(Cl)cc2[nH]ncc2c1-c1c(F)cc2c(N3CCOCC(O)(CF)C3)nc(OC[C@@]34CCCN3C[C@H](F)C4)nc2c1F` (single isomer, unassigned) [Example 99] the same measures were 7.03, 8.05 and 5 nM.
For `Cc1cc2[nH]ncc2c(-c2c(F)cc3c(N4CCC[C@](O)(CF)C4)nc(OC[C@@]45CCCN4C[C@H](F)C5)nc3c2F)c1C1CC1` (single isomer, unassigned) [Example 100] the same measures were 7.05, 8.40 and 3 nM.
Taken in the same sequence, the figures for `C/C=C\c1c(Cl)cc2[nH]ncc2c1-c1c(F)cc2c(N3CCC[C@](O)(CF)C3)nc(OC[C@@]34CCCN3C[C@H](F)C4)nc2c1F` (single isomer, unassigned) [Example 101] were 7.41, 8.30 and 3 nM.
On to `C/C=C\c1c(C)cc2[nH]ncc2c1-c1c(F)cc2c(N3CCC[C@](O)(CF)C3)nc(OC[C@@]34CCCN3C[C@H](F)C4)nc2c1F` (single isomer, unassigned) [Example 102], for which the negative-log IC50 (pIC50) is 7.44 in experiment [1] (setting [5]) and 8.40 in experiment [2]. In experiment [3], this compound showed a half-maximal inhibitory concentration (IC50) of 3 nM.
Taken in the same sequence, the figures for `C/C=C\c1c(C)cc2[nH]ncc2c1-c1c(F)cc2c(N3CCOC[C@@](C)(O)C3)nc(OC[C@@]34CCCN3C[C@H](F)C4)nc2c1F` (single isomer, unassigned) [Example 104] were 7.52, 8.70 and 1 nM.
In the case of `Cc1cc2[nH]ncc2c(-c2ccc3c(N4CCC[C@@](C)(O)C4)nc(OC[C@@]45CCCN4C[C@H](F)C5)nc3c2F)c1[C@H]1C[C@H]1C` (single isomer, unassigned) [Example 107], the values for the pIC50 in experiment [1] (setting [5]) and in experiment [2] were 6.78 and 8.40, respectively. In experiment [3], this compound registered a 50% inhibitory concentration (IC50) of 3 nM.
